{
  "source": "PubChem BioAssay AID330",
  "about": "(DTP/NCI, 2004)",
  "test_system": "P388 leukemia ip, CD2F1 mice, survival T/C",
  "test": "NCI In Vivo Anticancer Drug Screen. Data for tumor model P388 Leukemia (intraperitoneal) in CD2F1 (CDF1) mice",
  "conditions": "endpoint: median survival time, higher = longer survival",
  "how_it_was_run": "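Mice carrying the transplanted tumor received test compound or vehicle. Survival was recorded in each group, and the value is the treated-group measurement divided by that of the vehicle-treated control group.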",
  "key": {"[1]": {"conditions": "dose: 50.0 mg/kg/injection, schedule: Q01DX009 (ip), vehicle: saline"}, "[2]": {"conditions": "dose: 100.0 mg/kg/injection, schedule: Q01DX009 (ip), vehicle: saline"}, "[3]": {"conditions": "dose: 50.0 mg/kg/injection, schedule: Q01DX009 (ip), vehicle: saline with Tween-80"}, "[4]": {"conditions": "dose: 100.0 mg/kg/injection, schedule: Q01DX009 (ip), vehicle: saline with Tween-80"}, "[5]": {"conditions": "dose: 50.0 mg/kg/injection, schedule: Q01DX005 (ip), vehicle: Klucel (hydroxypropylcellulose) (HPC)"}, "[6]": {"conditions": "dose: 100.0 mg/kg/injection, schedule: Q01DX005 (ip), vehicle: Klucel (hydroxypropylcellulose) (HPC)"}, "[7]": {"conditions": "dose: 200.0 mg/kg/injection, schedule: Q01DX005 (ip), vehicle: Klucel (hydroxypropylcellulose) (HPC)"}},
  "note": "Values joined by “and” are separate entries in the source; they are usually repeats but may differ in a detail not shown here. Equal entries are not always repeated. Toxic doses and inconclusive results are not listed.",
  "data": [
    {"compound": "O=c1[nH]c(=O)c2nc(-c3ccccn3)cnc2[nH]1", "values": [
      {"measurement": "T/C", "setting": "dose: 50.0 mg/kg/injection, schedule: Q01DX001 (ip), vehicle: saline", "result": "101 % of control"},
      {"measurement": "T/C", "setting": "dose: 100.0 mg/kg/injection, schedule: Q01DX001 (ip), vehicle: saline", "result": "90 % of control"},
      {"measurement": "T/C", "setting": "dose: 200.0 mg/kg/injection, schedule: Q01DX001 (ip), vehicle: saline", "result": "92 % of control"}
    ]},
    {"compound": "CN(C)CCOc1ccc2c(c1)C/C(=C/c1ncc([N+](=O)[O-])n1C)C2=O", "values": [
      {"measurement": "T/C", "setting": "dose: 11.0 mg/kg/injection, schedule: Q01DX009 (ip), vehicle: saline with Tween-80", "result": "124 % of control"},
      {"measurement": "T/C", "setting": "dose: 15.0 mg/kg/injection, schedule: Q01DX009 (ip), vehicle: saline with Tween-80", "result": "109 % of control and 117 % of control"},
      {"measurement": "T/C", "setting": "dose: 22.0 mg/kg/injection, schedule: Q01DX009 (ip), vehicle: saline with Tween-80", "result": "124 % of control"},
      {"measurement": "T/C", "setting": "dose: 30.0 mg/kg/injection, schedule: Q01DX009 (ip), vehicle: saline with Tween-80", "result": "119 % of control"},
      {"measurement": "T/C", "setting": "dose: 60.0 mg/kg/injection, schedule: Q01DX009 (ip), vehicle: saline with Tween-80", "result": "117 % of control"},
      {"measurement": "T/C", "setting": "dose: 180.0 mg/kg/injection, schedule: Q01DX009 (ip), vehicle: saline with Tween-80", "result": "87 % of control"}
    ]},
    {"compound": "N#CCC(O)(/C=C/c1ccccc1)c1ccccc1", "note": "(stereo not given)", "values": [
      {"measurement": "T/C", "setting": "dose: 100.0 mg/kg/injection, schedule: Q01DX009 (ip), vehicle: saline sonified", "result": "91 % of control"},
      {"measurement": "T/C", "setting": "dose: 200.0 mg/kg/injection, schedule: Q01DX009 (ip), vehicle: saline sonified", "result": "86 % of control"},
      {"measurement": "T/C", "setting": "dose: 400.0 mg/kg/injection, schedule: Q01DX009 (ip), vehicle: saline sonified", "result": "95 % of control"}
    ]},
    {"compound": "Cc1cc(C)n(-c2nnc(-n3nc(C)cc3C)c3ccccc23)n1", "values": [
      {"measurement": "T/C", "setting": "[1]", "result": "94 % of control"},
      {"measurement": "T/C", "setting": "[2]", "result": "87 % of control"}
    ]},
    {"compound": "BrCCC[P+](c1ccccc1)(c1ccccc1)c1ccccc1", "values": [
      {"measurement": "T/C", "setting": "dose: 8.25 mg/kg/injection, schedule: Q01DX009 (ip), vehicle: saline with Tween-80", "result": "116 % of control"},
      {"measurement": "T/C", "setting": "dose: 12.5 mg/kg/injection, schedule: Q01DX009 (ip), vehicle: saline with Tween-80", "result": "116 % of control"}
    ]},
    {"compound": "Clc1ccccc1CSCc1c(CSCc2ccccc2Cl)c(CSCc2ccccc2Cl)c(CSCc2ccccc2Cl)c(CSCc2ccccc2Cl)c1CSCc1ccccc1Cl", "values": [
      {"measurement": "T/C", "setting": "[3]", "result": "102 % of control"},
      {"measurement": "T/C", "setting": "[4]", "result": "100 % of control"},
      {"measurement": "T/C", "setting": "dose: 200.0 mg/kg/injection, schedule: Q01DX009 (ip), vehicle: saline with Tween-80", "result": "100 % of control"}
    ]},
    {"compound": "CC(C)C1NC(=O)N(C2CCCCCC2)C1=O", "note": "(stereo not given)", "values": [
      {"measurement": "T/C", "setting": "[5]", "result": "100 % of control"},
      {"measurement": "T/C", "setting": "[6]", "result": "96 % of control"},
      {"measurement": "T/C", "setting": "[7]", "result": "100 % of control"}
    ]},
    {"compound": "O=C1c2ccccc2C(=O)C1c1cc(Cl)c(O)c(Cl)c1", "values": [
      {"measurement": "T/C", "setting": "dose: 50.0 mg/kg/injection, schedule: Q04DX002 (ip), vehicle: saline", "result": "100 % of control"},
      {"measurement": "T/C", "setting": "dose: 50.0 mg/kg/injection, schedule: Q04DX002 (ip), vehicle: suspension in saline", "result": "99 % of control"},
      {"measurement": "T/C", "setting": "dose: 100.0 mg/kg/injection, schedule: Q04DX002 (ip), vehicle: saline", "result": "117 % of control and 94 % of control"},
      {"measurement": "T/C", "setting": "dose: 100.0 mg/kg/injection, schedule: Q04DX002 (ip), vehicle: suspension in saline", "result": "98 % of control"},
      {"measurement": "T/C", "setting": "dose: 200.0 mg/kg/injection, schedule: Q04DX002 (ip), vehicle: saline", "result": "101 % of control and 117 % of control"},
      {"measurement": "T/C", "setting": "dose: 200.0 mg/kg/injection, schedule: Q04DX002 (ip), vehicle: suspension in saline", "result": "100 % of control"},
      {"measurement": "T/C", "setting": "dose: 400.0 mg/kg/injection, schedule: Q04DX002 (ip), vehicle: saline", "result": "96 % of control"},
      {"measurement": "T/C", "setting": "dose: 400.0 mg/kg/injection, schedule: Q04DX002 (ip), vehicle: suspension in saline", "result": "100 % of control"}
    ]},
    {"compound": "CC1OC(O)C(O)C(O)C1O", "note": "(stereo not given)", "values": [
      {"measurement": "T/C", "setting": "[5]", "result": "101 % of control"},
      {"measurement": "T/C", "setting": "[6]", "result": "93 % of control"},
      {"measurement": "T/C", "setting": "[7]", "result": "104 % of control"}
    ]},
    {"compound": "Cc1ccc(NC(=S)SCc2ccc(Cl)c(Cl)c2)cc1Br", "values": [
      {"measurement": "T/C", "setting": "[1]", "result": "113 % of control"},
      {"measurement": "T/C", "setting": "[2]", "result": "100 % of control"},
      {"measurement": "T/C", "setting": "dose: 200.0 mg/kg/injection, schedule: Q01DX009 (ip), vehicle: saline", "result": "90 % of control"},
      {"measurement": "T/C", "setting": "dose: 200.0 mg/kg/injection, schedule: Q01DX009 (ip), vehicle: suspension in saline", "result": "95 % of control"}
    ]},
    {"compound": "CC(O)C(O)C(O)C(=O)NCc1ccccc1", "note": "(stereo not given)", "values": [
      {"measurement": "T/C", "setting": "dose: 50.0 mg/kg/injection, schedule: Q01DX005 (ip), vehicle: saline with Tween-80", "result": "100 % of control"},
      {"measurement": "T/C", "setting": "dose: 100.0 mg/kg/injection, schedule: Q01DX005 (ip), vehicle: saline with Tween-80", "result": "94 % of control"},
      {"measurement": "T/C", "setting": "dose: 200.0 mg/kg/injection, schedule: Q01DX005 (ip), vehicle: saline with Tween-80", "result": "99 % of control"}
    ]},
    {"compound": "Nc1cc2c(c[n+](CCCCCCCCC[n+]3cc4c5ccccc5c(N)cc4c4ccccc43)c3ccccc23)c2ccccc12", "values": [
      {"measurement": "T/C", "setting": "dose: 0.39 mg/kg/injection, schedule: Q04DX003 (ip), vehicle: other", "result": "150 % of control"},
      {"measurement": "T/C", "setting": "dose: 0.78 mg/kg/injection, schedule: Q04DX003 (ip), vehicle: other", "result": "173 % of control"},
      {"measurement": "T/C", "setting": "dose: 1.56 mg/kg/injection, schedule: Q04DX003 (ip), vehicle: other", "result": "162 % of control"},
      {"measurement": "T/C", "setting": "dose: 3.13 mg/kg/injection, schedule: Q04DX003 (ip), vehicle: other", "result": "173 % of control"},
      {"measurement": "T/C", "setting": "dose: 6.25 mg/kg/injection, schedule: Q04DX003 (ip), vehicle: other", "result": "169 % of control and 191 % of control"},
      {"measurement": "T/C", "setting": "dose: 12.5 mg/kg/injection, schedule: Q04DX003 (ip), vehicle: other", "result": "117 % of control and 95 % of control"}
    ]},
    {"compound": "O=C(O)c1ccccc1C(=O)c1ccc(CBr)cc1", "values": [
      {"measurement": "T/C", "setting": "dose: 1.56 mg/kg/injection, schedule: Q01DX009 (ip), vehicle: saline with Tween-80", "result": "109 % of control"},
      {"measurement": "T/C", "setting": "dose: 3.13 mg/kg/injection, schedule: Q01DX009 (ip), vehicle: saline with Tween-80", "result": "109 % of control"},
      {"measurement": "T/C", "setting": "dose: 6.25 mg/kg/injection, schedule: Q01DX009 (ip), vehicle: saline with Tween-80", "result": "109 % of control and 113 % of control"},
      {"measurement": "T/C", "setting": "dose: 6.25 mg/kg/injection, schedule: Q04DX003 (ip), vehicle: saline with Tween-80", "result": "91 % of control"},
      {"measurement": "T/C", "setting": "dose: 12.5 mg/kg/injection, schedule: Q04DX003 (ip), vehicle: saline with Tween-80", "result": "95 % of control"},
      {"measurement": "T/C", "setting": "dose: 25.0 mg/kg/injection, schedule: Q04DX003 (ip), vehicle: saline with Tween-80", "result": "108 % of control"}
    ]},
    {"compound": "OC1C2CC3CC(C2)CC1(C#CC1(O)C2CC4CC(C2)CC1C4)C3", "note": "(stereo not given)", "values": [
      {"measurement": "T/C", "setting": "dose: 25.0 mg/kg/injection, schedule: Q01DX009 (ip), vehicle: Klucel (hydroxypropylcellulose) (HPC)", "result": "100 % of control"},
      {"measurement": "T/C", "setting": "dose: 50.0 mg/kg/injection, schedule: Q01DX009 (ip), vehicle: Klucel (hydroxypropylcellulose) (HPC)", "result": "100 % of control"},
      {"measurement": "T/C", "setting": "dose: 100.0 mg/kg/injection, schedule: Q01DX009 (ip), vehicle: Klucel (hydroxypropylcellulose) (HPC)", "result": "93 % of control"}
    ]},
    {"compound": "O=C1OCC/C1=C1/NC2CCCCC2NC1=O", "note": "(stereo not given)", "values": [
      {"measurement": "T/C", "setting": "[3]", "result": "94 % of control"},
      {"measurement": "T/C", "setting": "[4]", "result": "94 % of control"}
    ]},
    {"compound": "CCOC(=O)CN=NNc1ccc([N+](=O)[O-])cc1", "values": [
      {"measurement": "T/C", "setting": "dose: 100.0 mg/kg/injection, schedule: Q01DX001 (ip), vehicle: Klucel (hydroxypropylcellulose) (HPC)", "result": "106 % of control"},
      {"measurement": "T/C", "setting": "dose: 200.0 mg/kg/injection, schedule: Q01DX001 (ip), vehicle: Klucel (hydroxypropylcellulose) (HPC)", "result": "109 % of control"},
      {"measurement": "T/C", "setting": "dose: 400.0 mg/kg/injection, schedule: Q01DX001 (ip), vehicle: Klucel (hydroxypropylcellulose) (HPC)", "result": "109 % of control"}
    ]}
  ]
}
